The results in this text go back to patent US7455861B2, “Angelicae sinensis extracts useful for treatment of cancers” (priority 2004, dated 2008).

Data set [1] can be described thus: Cytotoxicity (IC50) on HUVEC. The class given is cell-based, human. The note with it: human, human umbilical vascular endothelial cells (HUVEC), normal cells, read-out: Cytotoxicity, IC50 HUVEC. An excerpt: Human umbilical vascular endothelial cells (HUVECs) were purchased from Cascade Biologics, Inc. (USA). HUVECs were maintained in Medium 200 (Cascade Biologics, Inc. USA) supplemented with 10% fetal bovine serum (FBS; Gibco BRL) and low serum growth supplement (LSGS; Cascade Biologics, Inc. USA). Human dermal fibroblasts (HDFs) were purchased from Cascade Biologics, Inc. (USA). HDFs were maintained in Medium 106 (Cascade Biologics, Inc. USA) supplemented with 10% FBS and low serum growth supplement (LSGS; Cascade Biologics, Inc. USA). The human colon adenocarcinoma cell lines HT-29 were purchased from the ATCC (Manassas, Va. USA). HT-29 were maintained in Dubecco's Modified Eagle Medium (DMEM; Gibco) supplemented with 10% FBS and 100 ng/ml penicillin and […] streptomycin (Life Technologies, Inc., Grand Island, N.Y., USA). For the proliferation assay of cell in log growth (G1), the cells were harvested at 60-80% of confluence. 100 μl of cell suspensions were dispensed onto a Falcon 96-well plates The densities were 6×10^3 cells/well in Medium 200 (for HUVECs), and 9×10^3 cells/well in Medium 106 (for HDFs), and 5×10^3 cells/well in DMEM (for HT-29) supplemented with 10% FBS. The cells were pre-incubated for 24 hours in an incubator (Humidified atmosphere, e.g., at 37° C., 5% CO2). 10 μl of toxicant of various concentrations were added into the culture medium of the plate. The cell cultures were incubated for 48 hours. 10 μl of the Cell Counting Kit-8 (CCK-8; DOJINDO) solution were added and the cell cultures incubated for 1˜4 hours in the incubator. The absorbance was measured at 450 nm, using a microplate reader with a reference wavelength at 600 nm or over.
Human tumor cell lines (MCF-7, CL1-5, HT-29, Caco-2), human umbilical vascular endothelial cells (HUVEC), and human dermal fibroblasts (HDF) were tested for sensitivity on Angelicae sinensis extracts, ligustilide, n-butylidenephthalide and its derivatives in vitro. The DBTRG-05MG, BCM, HL-60 and J5 cells were grown in RPMI-1640 medium containing 10% fetal calf serum and 100 ng/ml penicillin and […] streptomycin at 37° C. in a humidified atmosphere with 5% CO2. The G5T/VGH, RG2, Ni 8, SVEC and Balb/3T3 cells were cultured in DMEM with 10% fetal calf serum and 100 ng/ml penicillin and […] streptomycin at 37° C. in 5% CO2. Mycoplasma infection of the culture cells was excluded by PCR screening methods before each experiment.
The effects on cell viability after the treatments with different concentrations of the Angelicae sinensis extracts or the active components purified therefrom were evaluated by modified MTT assay in triplicate. Briefly, the cells (5×10^3) were incubated into 96-well plates containing 100 μl of a growth medium. The cells were permitted to adhere for 24 hours, then treated with 100 μl of the herbal extracts or the active components dissolved in the medium. The control contained DMSO of <0.02% (v/v). After 24, 48 and 72 h incubation, the drug-containing medium was replaced by 50 μl of fresh medium, and cells in each well were incubated in 50 μl of 400 μg/ml MTT for 6-8 h. The medium and MTT were removed later and 100 μl of DMSO was added to each well and to the control, to dissolve the soluble components. Absorbance at 550 nm of the solutions was measured with MRX Microtiter Plate Luminometer (DYNEX, USA). The absorbance of untreated cells was considered as 100%. To evaluate the effects of the extracts or the active components on cell growth rate of GBM cells, 5×10^3 exponentially growing cells were treated with different concentrations for 24, 48, or 72 h. The cytotoxicity of each test substance was determined as an IC50 value, which represents the drug concentration required to cause 50% inhibition. All experiments in this study were performed in triplicate.

The subject of a further data set is HT-29. Kind of data set: Cytotoxicity (IC50) on HT-29. The class given is cell-based. Particulars: Homo sapiens. The source says: Human umbilical vascular endothelial cells (HUVECs) were purchased from Cascade Biologics, Inc. (USA). HUVECs were maintained in Medium 200 (Cascade Biologics, Inc. USA) supplemented with 10% fetal bovine serum (FBS; Gibco BRL) and low serum growth supplement (LSGS; Cascade Biologics, Inc. USA). Human dermal fibroblasts (HDFs) were purchased from Cascade Biologics, Inc. (USA). HDFs were maintained in Medium 106 (Cascade Biologics, Inc. USA) supplemented with 10% FBS and low serum growth supplement (LSGS; Cascade Biologics, Inc. USA). The human colon adenocarcinoma cell lines HT-29 were purchased from the ATCC (Manassas, Va. USA). HT-29 were maintained in Dubecco's Modified Eagle Medium (DMEM; Gibco) supplemented with 10% FBS and 100 ng/ml penicillin and […] streptomycin (Life Technologies, Inc., Grand Island, N.Y., USA). […] The absorbance was measured at 450 nm, using a microplate reader with a reference wavelength at 600 nm or over. […]
The effects on cell viability after the treatments with different concentrations of the Angelicae sinensis extracts or the active components purified therefrom were evaluated by modified MTT assay in triplicate. […] Absorbance at 550 nm of the solutions was measured with MRX Microtiter Plate Luminometer (DYNEX, USA). The absorbance of untreated cells was considered as 100%. […]

The test system of another data set is DBTRG-05MG. Kind of data set: Cell cycle analysis (PI staining, FACScan) in GBM cells. It is filed as cell-based, human. Particulars: 400 μM BP. The protocol:
Brain tumor cell lines DBTRG-05MG and G5T/VGH were cultured in the growth medium with a diluent. For each test and control, DMSO was added, and the content is less than 0.02% (v/v). For the AS-C and BP treatment, 70 μg/ml of AS-C and 400 μM of BP were added, respectively. All were cultured for 48 hours. The analysis of cell cycle distribution was performed by DNA staining with propidium iodide (PI). Briefly, 2×10^6 adherent cells were detached by trypsinization. The detached cells and the floating dead cells were centrifuged and washed twice with 10 ml of cold 1×PBS (Life Technologies, Inc.). Supernatant was aspirated, cells were re-suspended in 0.8 ml of 1×PBS, and then 200 μl of PI solution (50 μg/ml PI+0.05 mg/ml RNase A; Sigma Chemical Co.) was added, and the cells were refrigerated at 4° C. overnight. The cells were incubated while protected from light at room temperature for at least 2 h before DNA analysis. After staining, DNA was detected and quantified on 20,000 total cells using a FACScan (Becton Dickinson Immunocytometry Systems, San Jose, Calif., USA) and CellQuest analysis software. The G0/G1 phases were gated in M1 (×2); G2/M phases were gated in M2 (×2); the total cells were gated in M3; S phase was M3−(M1(×2)+M2(×2)); Sub G1 phase (apoptosis cells) was gated in M4.

Like-named read-outs stand apart in the source and are kept apart here. Where only a bound is given, the exact number is not on record here.

In the case of `CCCC=C1OC(=O)c2ccccc21` [BP, n-Butylidenephthalide], the IC50 was above 532 µM in data set [1] (Table 1, value in parentheses); above 100 µg/mL in data set [1] (Table 1); 15 to 97 µg/mL in the data set on HT-29 (Table 2); 79.8 to 516 µM in the data set with HT-29 (Table 2, value in parentheses). The “cell cycle accumulation at G0/G1 phase” value with DBTRG-05MG is above 90%.
